Key:
Type in all cases: in vivo
[1] = tested on: Echinochloa crus-galli (ECHCG); assay: B. Herbicidal post-emergence efficacy, ECHCG; conditions: rated visually after about 3 weeks
Outline: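 Post-emergence foliar spray, at application rates of 1280 g/ha or less, on one-leaf-stage plants 2–3 weeks post-sowing, using aqueous WP or EC suspensions with 0.5% additive at 600 L/ha. Visual percent efficacy relative to untreated plants scored roughly 3 weeks later in the greenhouse.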

Setaria viridis (SETVI) [2] = assay: C. Herbicidal pre-emergence efficacy, SETVI; conditions: scored after about 3 weeks
Outline: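 Pre-emergence test: formulated compounds sprayed as aqueous suspension or emulsion with 0.5% additive at 600 l/ha onto soil covering sown seeds, at rates corresponding to 320 g/ha or less. After about 3 weeks in greenhouse, efficacy scored visually as percent versus untreated controls (100% = plants dead).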

Setaria viridis (SETVI) [3] = assay: A. Herbicidal pre-emergence efficacy, SETVI
Outline: (§1)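 Pre-emergence soil-surface spray in sandy loam pots, WP/EC in water plus 0.5% additive, 600 L/ha. Visual % damage rating after about 3 weeks in greenhouse vs. untreated; 0% = control-like, 100% = dead plants. Rates up to 1280 g/ha.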

Poa annua (POAAN) = assay: A. Herbicidal pre-emergence efficacy, POAAN
Outline: as §1

[4] = tested on: Triticum aestivum (TRZAS); assay: F. Post-emergence effect on useful plants, TRZAS; conditions: useful plant
Outline: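 Crop plants grown in sandy loam in the greenhouse were sprayed at the one-leaf stage, 2-3 weeks after sowing, with WP or EC formulations plus 0.5% additive at 600 l/ha water. Damage was scored visually after about 3 weeks against untreated controls (0% = like control, 100% = dead).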

Setaria viridis (SETVI) [5] = assay: E. Herbicidal post-emergence efficacy, SETVI
Experimental: (§2) Seeds of monocotyledonous and dicotyledonous weeds and crop plants were placed in sandy loam in plastic or organic planting pots, covered with soil and cultivated in a greenhouse under controlled growth conditions. 2 to 3 weeks after sowing, the test plants were treated at the one-leaf stage. The compounds of the invention, formulated in the form of wettable powders (WP) or as emulsion concentrates (EC), were then sprayed onto the green parts of the plants as aqueous suspension or emulsion with addition of 0.5% additive at a water application rate of 600 l/ha (converted). After the test plants had been kept in the greenhouse under optimum growth conditions for about 3 weeks, the activity of the preparations was rated visually in comparison to untreated controls.
(§3) For example, • 100% efficacy=plants have died, • 0% action=like untreated control plants.
(§4) Tables E1a to E12b below show the effects of selected compounds of the general formula (I) according to table 1 on various harmful plants at an application rate corresponding to 320 g/ha or less, which were obtained by the experimental procedure mentioned above.

[6] = tested on: Matricaria inodora (MATIN); assay: A. Herbicidal pre-emergence efficacy, MATIN
Outline: as §1

Kochia scoparia (KCHSC) = assay: E. Herbicidal post-emergence efficacy, KCHSC
Experimental: as §2, §3, §4

[7] = 320 g/ha, scored visually after about 3 weeks vs untreated controls
[8] = pre-emergence, dosage 1280 g/ha

| Compound | Post-emergence efficacy against ECHCG in % ([1]; 320 g/ha) | Post-emergence efficacy against ECHCG in % ([1]; 1280 g/ha) | Pre-emergence efficacy against SETVI (Setaria viridis (SETVI) [2]; 80 g/ha) | Pre-emergence efficacy against SETVI (Setaria viridis (SETVI) [2]; 320 g/ha) | Pre-emergence efficacy against SETVI (Setaria viridis (SETVI) [3]; dosage 80 g/ha) | Pre-emergence efficacy against SETVI (Setaria viridis (SETVI) [3]; dosage 320 g/ha) | Pre-emergence efficacy against SETVI (Setaria viridis (SETVI) [3]; dosage 1280 g/ha) | Pre-emergence efficacy against POAAN (Poa annua (POAAN); dosage 80 g/ha) | Pre-emergence efficacy against POAAN (Poa annua (POAAN); dosage 320 g/ha) | Pre-emergence efficacy against POAAN (Poa annua (POAAN); dosage 1280 g/ha) | Post-emergence efficacy against TRZAS in % ([4]; application rate 80 g/ha) | Post-emergence efficacy against SETVI in % (Setaria viridis (SETVI) [5]; application rate 80 g/ha) | Post-emergence efficacy against SETVI in % (Setaria viridis (SETVI) [5]; application rate 320 g/ha) | Pre-emergence efficacy against MATIN [6, 7] | Pre-emergence efficacy against MATIN [6, 8] | Post-emergence efficacy against TRZAS in % ([4]; application rate 320 g/ha) | Post-emergence efficacy against KCHSC in % (Kochia scoparia (KCHSC); application rate 80 g/ha) | Post-emergence efficacy against KCHSC in % (Kochia scoparia (KCHSC); application rate 320 g/ha) | Post-emergence efficacy against ECHCG in % ([1]; 80 g/ha) |
| --- | --- | --- | --- | --- | --- | --- | --- | --- | --- | --- | --- | --- | --- | --- | --- | --- | --- | --- | --- |
| O=S(=O)(CCC(F)(F)F)Oc1ccccc1Oc1ncc(Cl)cn1 [Example I-8] | 90% | 100% | 100% | 100% | 100% | 100% | 100% | 90% | 100% | 100% | 20% | 90% | 90% | 90% | 100% | – | – | – | – |
| O=S(=O)(CCl)Oc1ccccc1Oc1ncc(Cl)cn1 [Example I-9] | – | 90% | – | 90% | – | 100% | 100% | – | 90% | 100% | 20% | – | 100% | 90% | 100% | – | – | – | – |
| O=S(=O)(CCCCl)Oc1c(F)cccc1Oc1ncc(Cl)cn1 [Example I-14] | 100% | 100% | 100% | 100% | 100% | 100% | 100% | 100% | 100% | 100% | 20% | 100% | 100% | – | 100% | – | – | – | – |
| O=S(=O)(CC1CC1)Oc1ccccc1Oc1ncc(Cl)cn1 [Example I-23] | 90% | 90% | 100% | 100% | – | – | 100% | 90% | 90% | 90% | 0% | 80% | 100% | 90% | 100% | – | – | – | – |
| CC(C)CCS(=O)(=O)Oc1ccccc1Oc1ncc(Cl)cn1 [Example I-25] | 90% | 100% | 80% | 100% | – | 100% | 100% | – | 100% | 100% | 0% | – | 100% | – | 100% | 0% | – | – | – |
| O=S(=O)(CCCC(F)(F)F)Oc1c(Cl)cccc1Oc1ncc(Br)cn1 [Example I-34] | 90% | 90% | 80% | 100% | 90% | 90% | 100% | – | 90% | 90% | 0% | 90% | 90% | – | – | 20% | 100% | 100% | – |
| C=CCS(=O)(=O)Oc1ccccc1Oc1ncc(Cl)cn1 [Example I-36] | – | – | – | – | – | – | 100% | – | – | 90% | 0% | – | – | – | – | 0% | – | 90% | – |
| O=S(=O)(CCCC(F)(F)F)Oc1c(F)cccc1Oc1ncc(F)cn1 [Example I-42] | 100% | 100% | 100% | 100% | 100% | 100% | 100% | 100% | 100% | 100% | – | 100% | 100% | 90% | 100% | – | 90% | 90% | 100% |
| O=S(=O)(CCC(F)(F)F)Oc1c(Br)cccc1Oc1ncc(F)cn1 [Example I-43] | 90% | 90% | 100% | 100% | – | 100% | 100% | – | 100% | 100% | 0% | – | – | – | 90% | 0% | 90% | 100% | – |
| O=S(=O)(CC1CC(F)(F)C1)Oc1c(F)cccc1Oc1ncc(Cl)cn1 [Example I-53] | 90% | 90% | 100% | 100% | 100% | 100% | 100% | 100% | 100% | 100% | – | 100% | 100% | – | 100% | – | 90% | 90% | 90% |
| O=S(=O)(CCC1CC1)Oc1c(F)cccc1Oc1ncc(Cl)cn1 [Example I-55] | 90% | 90% | 80% | 90% | 100% | 100% | 100% | – | 90% | 100% | 20% | 80% | 90% | – | – | – | 80% | 90% | – |
| O=S(=O)(CCC(F)=C(F)F)Oc1c(F)cccc1Oc1ncc(Cl)cn1 [Example I-70] | – | – | 90% | 100% | – | – | – | – | – | – | 20% | 100% | 100% | – | – | – | 90% | 100% | – |
| O=S(=O)(CCC(F)=C(F)F)Oc1c(Cl)cccc1Oc1ncc(Cl)cn1 [Example I-73] | 90% | 100% | – | 100% | – | 90% | 100% | – | 90% | 100% | 0% | – | – | – | – | 20% | 90% | 90% | – |
| Cc1cccc(Oc2ncc(Cl)cn2)c1OS(=O)(=O)CC1CC(F)(F)C1 [Example I-74] | 100% | 100% | 100% | 100% | – | 90% | 100% | – | 100% | 100% | 0% | – | 90% | – | – | – | – | 80% | – |
| N#Cc1cccc(Oc2ncc(Cl)cn2)c1OS(=O)(=O)CCCC(F)(F)F [Example I-81] | – | – | 100% | 100% | – | – | – | – | – | – | 0% | – | 100% | – | – | – | 100% | 100% | – |

From patent publication US20240174618A1, “SUBSTITUTED (2-HETEROARYLOXYPHENYL)SULFONATES, SALTS THEREOF AND THEIR USE AS HERBICIDAL AGENTS” (Bayer Aktiengesellschaft, priority 2021, published 2024)
